Key:
native Piezo1Rs = molecular target: T1, native Piezo1Rs (Homo sapiens, UniProt Q92508); test: Calcium imaging of Yoda1-evoked Ca2+ influx in hiPSC-derived microglia; format: cell-based; conditions: 50 μM GdCI in BS pre-incubation
T1 construct: endogenous in cells; host or cells: human iPSC-derived microglia
Protocol: (§1) To study the calcium influx evoked by native Piezo1 Rs expressed in microglia cells the present inventors used short Yoda1 applications (2 s, 50 μM if not otherwise specified). For this purpose, human IPSO derived microglia cells and SV-40 (immortalized human microglia) cells were seeded on 7 mm cover slips 1 day prior to the imaging experiment. Cells were loaded with the calcium-sensitive fluorescent dye Fluo-4AM (5 μM) for 30 min at 37° C. Followed by wash-incubation for 15 min in Ab 20 μM, 50 μM GdCI and basic solution (BS) as a control at 37° C. The basic solution containing the following (BS, in mM): 2.5 KCl, 152 NaCl, 10 glucose, 2 CaCl2, and 10 HEPES at pH 7.4. Fluorescence was visualized using monochromatic light source (TILL Photonics GmbH) using Ex/Im 494/[…] and a CCD camera (SensiCam). Chemicals were applied using a fast perfusion system (RSC-200, BioLogic Science). To quantify the difference in the amplitude of calcium transients, the ratio values were normalized by subtracting a baseline and further divided by the amplitude of the calcium transient to the 2 sec application of the ionomycin. Data were pre-analyzed offline using the FEI offline analysis (TILL Photonics), and further analysis was automatized using MatLab. Quantitative data were expressed as means±SEM unless otherwise stated. Number of experiments is indicated by n. Significance assessed with the ANOVA test or Mann-Whitney t test for non-parametric data. Statistically significant differences were set at*p<0.05 and **p<0.01.
Differentiation of microglia. Differentiation of microglia was carried out as previously described with minor modifications (Abud et al., 2017). Shortly, on DO, iPSCs were dissociated to single cells with 0.5 mM EDTA or Accutase and were replated at a density of 6-,000-16,000 cells/cm2 on Matrigel in E8, 0.5% penicillin/streptomycin (P/S, 50 IU/50 […]), 5 ng/ml BMP4, 25 ng/ml activin a (both from Peprotech or Miltenyi Biotec), 1 μM CHIR 99021 (Axon or Stem Cell Technologies) and 10 μM Y-27632 to induce mesodermal differentiation. […]

Piezo1Rs = molecular target: T2, Piezo1Rs (Homo sapiens, UniProt Q92508); test: Calcium imaging of Yoda1-evoked Ca2+ transients in SV-40 immortalized human microglia cell line; format: cell-based; conditions: SV-40 cells, n=13, p=0.00009
T2 construct: SV-40 immortalized human microglia cell line which endogenously express Piezo-1 and Piezo2Rs was used; endogenous in cells; host or cells: SV-40 immortalized human microglia cell line
Protocol: as §1, with “Chemicals were applied using a fast perfusion system (RSC-200, BioLogic Science).” left out, “Number of experiments is indicated by n.” left out, “Statistically significant differences were set at*p<0.05 and **p<0.01.” left out

T1 sequence (Q92508 whole entry): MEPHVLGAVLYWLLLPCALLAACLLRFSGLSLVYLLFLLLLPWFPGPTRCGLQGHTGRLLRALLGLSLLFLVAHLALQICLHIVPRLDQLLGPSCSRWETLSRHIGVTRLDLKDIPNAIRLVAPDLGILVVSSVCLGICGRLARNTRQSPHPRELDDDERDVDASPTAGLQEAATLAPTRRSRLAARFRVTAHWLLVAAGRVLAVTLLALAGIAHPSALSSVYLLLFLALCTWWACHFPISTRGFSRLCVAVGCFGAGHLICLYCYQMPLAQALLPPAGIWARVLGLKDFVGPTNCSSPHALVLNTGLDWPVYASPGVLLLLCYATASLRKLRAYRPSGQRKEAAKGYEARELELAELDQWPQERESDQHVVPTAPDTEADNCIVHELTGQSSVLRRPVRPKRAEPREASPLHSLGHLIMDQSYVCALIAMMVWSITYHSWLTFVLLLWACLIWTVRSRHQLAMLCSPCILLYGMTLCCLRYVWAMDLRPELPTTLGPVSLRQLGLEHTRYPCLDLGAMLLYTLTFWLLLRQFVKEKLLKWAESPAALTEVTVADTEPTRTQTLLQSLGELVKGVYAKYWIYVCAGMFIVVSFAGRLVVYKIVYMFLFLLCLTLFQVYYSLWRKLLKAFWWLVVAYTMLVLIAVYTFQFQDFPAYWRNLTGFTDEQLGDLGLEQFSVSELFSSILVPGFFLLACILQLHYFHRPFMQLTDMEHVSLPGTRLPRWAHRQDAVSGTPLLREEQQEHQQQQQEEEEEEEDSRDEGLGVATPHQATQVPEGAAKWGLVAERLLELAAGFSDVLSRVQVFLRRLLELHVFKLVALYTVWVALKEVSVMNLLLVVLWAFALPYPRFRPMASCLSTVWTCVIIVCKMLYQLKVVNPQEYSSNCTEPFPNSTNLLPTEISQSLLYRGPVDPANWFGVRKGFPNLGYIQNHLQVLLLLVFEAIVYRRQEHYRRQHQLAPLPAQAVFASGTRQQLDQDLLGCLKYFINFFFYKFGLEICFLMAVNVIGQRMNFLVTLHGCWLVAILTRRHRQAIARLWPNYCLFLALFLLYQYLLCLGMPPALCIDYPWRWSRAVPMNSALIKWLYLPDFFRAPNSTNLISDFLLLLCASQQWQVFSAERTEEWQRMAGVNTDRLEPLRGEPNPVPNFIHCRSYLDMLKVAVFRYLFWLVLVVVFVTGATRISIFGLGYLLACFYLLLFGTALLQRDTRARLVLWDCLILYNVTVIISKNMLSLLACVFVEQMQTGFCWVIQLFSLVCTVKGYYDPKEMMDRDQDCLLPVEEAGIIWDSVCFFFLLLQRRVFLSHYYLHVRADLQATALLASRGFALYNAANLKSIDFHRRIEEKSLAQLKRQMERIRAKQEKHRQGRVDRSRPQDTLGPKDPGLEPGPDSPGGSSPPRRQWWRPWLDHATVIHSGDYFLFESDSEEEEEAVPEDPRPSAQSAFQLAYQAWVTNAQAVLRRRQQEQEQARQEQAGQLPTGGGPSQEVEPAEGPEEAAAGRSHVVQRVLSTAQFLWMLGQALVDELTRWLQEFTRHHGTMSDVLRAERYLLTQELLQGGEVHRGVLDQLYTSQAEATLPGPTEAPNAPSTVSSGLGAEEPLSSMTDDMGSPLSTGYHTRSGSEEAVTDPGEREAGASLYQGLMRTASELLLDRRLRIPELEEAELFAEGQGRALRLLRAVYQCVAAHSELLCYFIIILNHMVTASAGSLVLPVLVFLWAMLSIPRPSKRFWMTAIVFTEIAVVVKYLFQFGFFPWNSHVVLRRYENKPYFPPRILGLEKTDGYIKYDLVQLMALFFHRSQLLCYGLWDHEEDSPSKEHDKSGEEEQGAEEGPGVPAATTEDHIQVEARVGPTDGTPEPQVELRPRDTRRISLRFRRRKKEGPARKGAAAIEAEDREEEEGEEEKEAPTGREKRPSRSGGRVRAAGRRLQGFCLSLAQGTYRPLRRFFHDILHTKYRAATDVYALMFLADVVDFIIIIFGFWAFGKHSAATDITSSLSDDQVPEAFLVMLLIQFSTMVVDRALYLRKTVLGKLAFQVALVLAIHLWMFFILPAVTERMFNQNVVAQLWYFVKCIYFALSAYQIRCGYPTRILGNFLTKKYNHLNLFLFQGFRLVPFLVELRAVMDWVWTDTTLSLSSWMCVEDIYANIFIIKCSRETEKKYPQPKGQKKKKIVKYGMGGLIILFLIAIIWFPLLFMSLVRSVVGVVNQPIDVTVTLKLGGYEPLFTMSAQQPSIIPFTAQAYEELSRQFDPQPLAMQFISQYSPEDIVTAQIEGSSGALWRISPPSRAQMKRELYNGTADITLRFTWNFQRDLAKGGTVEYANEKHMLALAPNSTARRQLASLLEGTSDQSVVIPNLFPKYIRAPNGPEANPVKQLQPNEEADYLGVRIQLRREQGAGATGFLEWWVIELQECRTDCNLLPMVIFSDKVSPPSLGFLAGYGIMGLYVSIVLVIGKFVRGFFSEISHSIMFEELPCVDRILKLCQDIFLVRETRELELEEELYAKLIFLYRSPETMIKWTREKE
T2 sequence (Q92508 whole entry): as above

## [Cl][Gd]([Cl])[Cl] [GdCI, Gadolinium chloride]
Native Piezo1Rs; 50 μM Yoda1 2 s, n=5, p=0.0073
  Yoda1-activated Ca2+ transients after pre-incubation with GdCI: 0.10±0.1
Native Piezo1Rs; hiPSC microglia
  inhibition of Yoda1-activated Ca2+ transients: 90%
Piezo1Rs
  Yoda1 activated Ca2+ transients after pre-incubation of GdCI: 0.17±0.04

— patent publication US20220265646A1, “PIEZO AGONISTS FOR PREVENTING OR REVERTING ABNORMAL AMYLOID DEPOSITION” (ITÄ-SUOMEN YLIOPISTO, priority 2019, published 2022)
